In patent publication US20260231992A1, “A PROCESS FOR MYCOTOXIN DETOXIFICATION USING LACTOCOCCUS LACTIS” (priority 2023, published 2026):
Converted amounts (≈) assume the structure as drawn. Like-named read-outs stand apart in the source and are kept apart here.

Assays:
Assay type in all cases: cell-based
[1] = test system: Staphylococcus aureus NCIM 2079; test: microbe, parasite or virus in culture; conditions: Staphylococcus aureus NCIM 2079, 24 h at 37° C.
[2] = test system: Bacillus subtilis NCIM 2010; test: microbe, parasite or virus in culture; conditions: Bacillus subtilis NCIM 2010, 24 h at 37° C.
[3] = test system: Escherichia coli NCIM 2065; test: microbe, parasite or virus in culture; conditions: Escherichia coli NCIM 2065, 24 h at 37° C.
[4] = test system: Serratia marcescens NCIM 2919; test: microbe, parasite or virus in culture; conditions: Serratia marcescens NCIM 2919, 24 h at 37° C.
[5] = test system: Pseudomonas desmolyticum NCIM 2112; test: microbe, parasite or virus in culture; conditions: Pseudomonas desmolyticum NCIM 2112, 24 h at 37° C.
[6] = test system: Mycobacterium smegmatis NCIM 5138; test: microbe, parasite or virus in culture; conditions: Mycolicibacterium smegmatis, NCIM5138; Mycobacterium smegmatis NCIM 5138, 48 h
[7] = test system: Candida albicans NCIM 3557; test: Antifungal MIC, RPMI-1640, resazurin; conditions: Candida albicans NCIM 3557, 48 to 72 h at 28° C.
[8] = test system: Fusarium verticillioides BIONCL4; test: Antifungal MIC, RPMI-1640, resazurin; conditions: Fusarium verticillioides BIONCL4, 48 to 72 h at 28° C.
[9] = test system: Fusarium graminearum MTCC1893; test: microbe, parasite or virus in culture
[10] = test system: Aspergillus niger BIONCL 12; test: Antifungal MIC, RPMI-1640, resazurin; conditions: Aspergillus niger BIONCL 12, 48 to 72 h at 28° C.
[11] = test system: Gram-positive and Gram-negative bacteria; test: Antibacterial MIC, whole panel of tested strains; conditions: span over all tested bacterial strains; read-out: MICs against tested bacterial strains
fungal strains tested = test: microbe, parasite or virus in culture; conditions: Fusarium graminearum, read-out: MIC against the fungal strains tested
[12] = NCIM3557, read-out: MIC (converted)
[13] = Fusarium graminearum, MTCC1893, Fusarium graminearum MTCC1893, 48 to 72 h at 28° C.

Which MIC ([1]; NCIM2079, read-out: MIC) does the source give for CC(C)(C)c1ccc(O)c(C(C)(C)C)c1 [C-1, 2,4-di-tert-butylphenol] here?
The MIC was 6.25 µg/mL (≈ 30.3 µM).

And the MIC ([2]; NCIM2010, read-out: MIC)?
Its MIC is 3.12 µg/mL (≈ 15.1 µM).

And the MIC ([3]; NCIM2065, read-out: MIC)?
The MIC was 3.12 µg/mL (≈ 15.1 µM).

And the MIC ([4]; NCIM2919, read-out: MIC)?
Its MIC is 1.56 µg/mL (≈ 7.56 µM).

And the MIC ([5]; NCIM2112, read-out: MIC)?
Its MIC is 6.25 µg/mL (≈ 30.3 µM).

And the MIC [6]?
Its MIC is 3.12 µg/mL (≈ 15.1 µM).

What about the MIC [7, 12] of the same compound?
The MIC was 12.5 µg/mL (≈ 60.6 µM).

What about the MIC ([8]; read-out: MIC (converted)) of the same compound?
Its MIC is 6.25 µg/mL (≈ 30.3 µM).

What about the MIC [9, 13] of the same compound?
The MIC was 6.25 µg/mL (≈ 30.3 µM).

What about the MIC [10] of the same compound?
The MIC was 12.50 µg/mL (≈ 60.6 µM).

What about the MIC ([10]; BIONCL12, read-out: MIC) of the same compound?
Its MIC is 12.5 µg/mL (≈ 60.6 µM).

And the MIC [11]?
The MIC was 1.56 to 25 µg/mL (≈ 7.56 to 121 µM).

What does the source list for CC1=C(O)C(=O)C(O)CO1 (centres unmarked) [C-2, 3,5-dihydroxy-6-methyl-2,3-dihydro-4H-pyran-4-one]?
MIC ([1]; NCIM2079, read-out: MIC): 3.12 µg/mL (≈ 21.6 µM); MIC ([2]; NCIM2010, read-out: MIC): 6.25 µg/mL (≈ 43.4 µM); MIC ([3]; NCIM2065, read-out: MIC): 6.25 µg/mL (≈ 43.4 µM); MIC ([4]; NCIM2919, read-out: MIC): 3.12 µg/mL (≈ 21.6 µM); MIC ([5]; NCIM2112, read-out: MIC): 6.25 µg/mL (≈ 43.4 µM); MIC [6]: 12.5 µg/mL (≈ 86.7 µM); MIC [7, 12]: 3.12 µg/mL (≈ 21.6 µM); MIC ([8]; read-out: MIC (converted)): 3.12 µg/mL (≈ 21.6 µM); MIC [9, 13]: 6.25 µg/mL (≈ 43.4 µM); MIC ([10]; BIONCL12, read-out: MIC): 3.12 µg/mL (≈ 21.6 µM); MIC [11]: 1.56 to 25 µg/mL (≈ 10.8 to 173 µM); MIC (fungal strains tested): 3.12 to 6.25 µg/mL (≈ 21.6 to 43.4 µM)

With NC(=O)c1cnccn1 [C-3, Pyrazine-2-carboxamide] as the compound, how does the MIC ([1]; NCIM2079, read-out: MIC) read?
The MIC was 25 µg/mL (≈ 203 µM).

And the MIC [1]?
The MIC was 25.0 µg/mL (≈ 203 µM).

What about the MIC [2] of the same compound?
The MIC was 25.0 µg/mL (≈ 203 µM).

What about the MIC ([2]; NCIM2010, read-out: MIC) of the same compound?
The MIC was 25 µg/mL (≈ 203 µM).

And the MIC [3]?
Its MIC is 25.0 µg/mL (≈ 203 µM).

And the MIC ([3]; NCIM2065, read-out: MIC)?
Its MIC is 25 µg/mL (≈ 203 µM).

And the MIC ([4]; NCIM2919, read-out: MIC)?
The MIC was 25 µg/mL (≈ 203 µM).

And the MIC [4]?
The MIC was 25.0 µg/mL (≈ 203 µM).

What about the MIC ([5]; NCIM2112, read-out: MIC) of the same compound?
The MIC was 25 µg/mL (≈ 203 µM).

And the MIC [5]?
Its MIC is 25.0 µg/mL (≈ 203 µM).

And the MIC [6]?
The MIC was 12.5 µg/mL (≈ 102 µM).

And the MIC [7]?
The MIC was 12.5 µg/mL (≈ 102 µM).

And the MIC [7, 12]?
The MIC was 12.5 µg/mL (≈ 102 µM).

What about the MIC [8] of the same compound?
Its MIC is 12.5 µg/mL (≈ 102 µM).

And the MIC ([8]; read-out: MIC (converted))?
The MIC was 12.5 µg/mL (≈ 102 µM).

What about the MIC ([9]; Fusarium graminearum MTCC1893, 48 to 72 h at 28° C.) of the same compound?
Its MIC is 50.0 µg/mL (≈ 406 µM).

And the MIC [9, 13]?
Its MIC is 25 µg/mL (≈ 203 µM).

What about the MIC [10] of the same compound?
Its MIC is 25.0 µg/mL (≈ 203 µM).

What about the MIC ([10]; BIONCL12, read-out: MIC) of the same compound?
Its MIC is 25 µg/mL (≈ 203 µM).

What about the MIC [11] of the same compound?
Its MIC is 1.56 to 25 µg/mL (≈ 12.7 to 203 µM).
